Holding throughout (type): binding, synthetic construct
Experiment [1] has as its target T1, protein 18-19.
T1 construct: Kd measured on the N-terminal MBP fusion; crystal structure model residues 9-71
As to the kind of experiment: X-ray crystal structure ([…] Å) and equilibrium ultrafiltration with γ-[…]-ATP.

Experiment [2] concerns the target T2, protein 18-19 (D65V).
T2 construct: 80-residue artificial protein as N-terminal MBP fusion
As to the kind of experiment: equilibrium ultrafiltration with γ-[…]-ATP.

The target of experiment [3] is T3, protein 18-19 (N32D).
T3 construct: 80-residue artificial protein as N-terminal MBP fusion
As to the kind of experiment: equilibrium ultrafiltration with γ-[…]-ATP.

What is called Kd is the free concentration of one partner at which half of the binding sites on the other are occupied at equilibrium, for simple one-to-one binding. The low end stands for a tighter complex, the high end for a looser complex.

Turning to `Nc1ncnc2c1ncn2[C@@H]1O[C@H](COP(=O)(O)OP(=O)(O)OP(=O)(O)O)[C@@H](O)[C@H]1O` [ATP], the figures for the Kd in experiment [1], in experiment [2] and in experiment [3] were 1100 ± 78 nM, 640 ± 28 nM and 360 ± 12 nM, respectively.
